Assay results as given in patent publication US20240384268A1, “Oligonucleotides” (Hudson Institute of Medical Research, priority 2021, published 2024).

Biological target: T1, TLR8 (Homo sapiens, UniProt Q9NR97)
T1 sequence (Q9NR97 27-1041): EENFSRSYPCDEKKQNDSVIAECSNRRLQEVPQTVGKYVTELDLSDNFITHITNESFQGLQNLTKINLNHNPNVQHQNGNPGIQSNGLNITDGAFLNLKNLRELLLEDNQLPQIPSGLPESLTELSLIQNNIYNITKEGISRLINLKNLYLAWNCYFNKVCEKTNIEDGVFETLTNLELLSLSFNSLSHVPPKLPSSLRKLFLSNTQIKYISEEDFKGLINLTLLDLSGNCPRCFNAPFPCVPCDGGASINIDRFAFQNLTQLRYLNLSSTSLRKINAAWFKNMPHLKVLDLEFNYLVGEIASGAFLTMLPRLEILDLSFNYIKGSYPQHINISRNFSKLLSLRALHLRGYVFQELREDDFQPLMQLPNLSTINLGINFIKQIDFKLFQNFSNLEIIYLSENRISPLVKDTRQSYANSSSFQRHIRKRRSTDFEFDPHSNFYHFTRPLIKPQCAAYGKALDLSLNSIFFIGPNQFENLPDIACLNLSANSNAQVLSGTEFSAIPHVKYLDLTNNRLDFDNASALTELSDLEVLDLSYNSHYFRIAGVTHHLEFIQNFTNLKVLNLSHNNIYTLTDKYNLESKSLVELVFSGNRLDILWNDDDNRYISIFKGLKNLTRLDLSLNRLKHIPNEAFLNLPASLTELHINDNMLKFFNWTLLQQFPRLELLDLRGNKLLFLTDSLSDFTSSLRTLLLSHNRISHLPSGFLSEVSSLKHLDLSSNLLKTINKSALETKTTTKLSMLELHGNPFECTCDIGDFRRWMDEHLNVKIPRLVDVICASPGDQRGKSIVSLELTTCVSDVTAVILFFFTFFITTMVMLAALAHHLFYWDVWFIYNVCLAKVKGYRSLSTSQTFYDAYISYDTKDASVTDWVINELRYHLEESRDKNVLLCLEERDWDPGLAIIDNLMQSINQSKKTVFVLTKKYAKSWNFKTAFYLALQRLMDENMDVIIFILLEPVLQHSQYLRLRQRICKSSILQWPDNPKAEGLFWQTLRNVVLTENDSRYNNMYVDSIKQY
Assay: HEK-TLR8 NF-κB-luciferase reporter, R848 or Motolimod stimulation (potentiation or inhibition)
Format: cell-based
Parameters: expressed in transfected cells; host or cells: 293XLhTLR8 (HEK293)
Conditions: relative to R848 only; for TLR8 100 nM (averaged NF-κB-Luciferase level relative to R848 condition, fold increase): ASO 100 nM; for TLR8 500 nM (averaged NF-κB-Luciferase level relative to R848 condition, fold increase): ASO 500 nM
Protocol: (§1) In such examples, potentiation of TLR8 activity can be identified by observation of an overall increased TLR8 response of the cell population, or a higher proportion of cells having TLR8-positive activity as compared to a negative control condition in which cells are treated with TLR8 agonist in the absence of the oligonucleotide (or in the presence of an appropriate control non-potentiating agent). In one example, 293XLhTLR8 (referred to as HEK-TLR8) cells are transfected with pNF-κB-Luc4 reporter, incubated with an oligonucleotide, and then stimulated with R848. TLR8 activity can be determined by a luciferase assay, which measures activated NF-κB by luminescence. TLR8 activity can also be analysed by measuring cytokine levels, for example by ELISA.
as §1, with “inhibition” for “potentiation”, “decreased” for “increased”, “lower” for “higher”, “positive” for “negative”, “inhibitory” for “non-potentiating”
For cGAS stimulations, cells were treated for indicated duration with ASOs, prior to transfection with ISD70 (human cells) or ISD45 (mouse cells) (the ASOs were not washed off prior to ISD transfection unless otherwise indicated). The cGAS ligands ISD45 (Stetson and Medzhitov, 2006) and ISD70 (also known as VACV-70 (Unterholzner et al., 2010)) (Table 1) were resuspended as follows: 5 1d of sense and 5 μl of antisense strands at 10 μg/μl were added to 90 μl PBS under sterile conditions, heated at 75° C. for 30 min, prior to letting cool down at room temperature and aliquoting (stock at 1 μg/1 l). The ISDs were transfected at a concentration of […] at a ratio of 1 μg:1 μl with Lipofectamine 2000 in Opti-MEM (Thermo Fisher Scientific). HEK-TLR3, HEK-TLR7 and […] were treated with indicated concentration of ASOs for 20-50 min, prior to stimulation with poly(I:C) (Invivogen), R848 (Invivogen), Motolimod (MedChemExpress) and the Class B CpG oligonucleotides ODN 2006 (synthesised by IDT and resuspended in RNase-free TE buffer [Table 1]), respectively. The TLR2/1 agonist PAM3CSK4 (Invivogen), the TLR4 agonist lipopolysaccharide (Invivogen), the Class B CpG oligonucleotides ODN 1826 (synthesised by IDT and resuspended in RNase-free TE buffer), the mouse Sting agonist DMXAA (Cayman) and the human STING agonist (compound #3 from (Raanjulu et al., 2018), referred to as GSK herein—kind gift from Cancer Therapeutics CRC, Australia) were used at indicated concentrations. Aspirin (Sigma—A2093) was resuspended in pure medium to 10 mM, filter sterilised and added to the cells at 2 mM final. All ASOs were synthesised by Integrated DNA Technologies (IDT), and resuspended in RNase-free TE buffer, pH 8.0 (Thermo Fisher Scientific). Cell viability was assessed by adding 1× fresh resazurin solution to the wells (10λ solution made up with 7 mg resazurin [Sigma—R7017] dissolved in 3.5 ml PBS, sterile filtered at […]) for 4 h, prior to reading at with a Fluostar OPTIMA (BMG LABTECH) plate-reader (fluorescence: Excitation 535 nm, Emission 590); wells with medium only and 1× resazurin were used as blanks.

In the case of “ACACTTCGTGGGGTCC (antisense; LNA-modified, pattern not given here) [HPRT LNA-665 V1]”, the “TLR8 100 nM (averaged NF-κB-Luciferase level relative to R848 condition, fold increase)” value is reported as 0.422 and the “TLR8 500 nM (averaged NF-κB-Luciferase level relative to R848 condition, fold increase)” value is reported as 1.029.

With “CAACACTTCGTGGGGT (antisense; LNA-modified, pattern not given here) [HPRT LNA-667 V1]” the “TLR8 100 nM (averaged NF-κB-Luciferase level relative to R848 condition, fold increase)” value was 0.591 and the “TLR8 500 nM (averaged NF-κB-Luciferase level relative to R848 condition, fold increase)” value was 0.690.

For “CCAAGATCAGCAGTCT (antisense; LNA-modified, pattern not given here) [CTNN2B-2341 LNA KL]”, the “TLR8 100 nM (averaged NF-κB-Luciferase level relative to R848 condition, fold increase)” value was 1.015 and the “TLR8 500 nM (averaged NF-κB-Luciferase level relative to R848 condition, fold increase)” value was 2.920.

In the case of “CCATCCATGAGGTCCT (antisense; LNA-modified, pattern not given here) [CTNN2B-2545 LNA V1]”, the “TLR8 100 nM (averaged NF-κB-Luciferase level relative to R848 condition, fold increase)” value is reported as 0.675 and the “TLR8 500 nM (averaged NF-κB-Luciferase level relative to R848 condition, fold increase)” value is reported as 1.169.

In the case of “GATAGCACCTTCAGCA (antisense; LNA-modified, pattern not given here) [CTNN2B-1294 LNA KL]”, the “TLR8 100 nM (averaged NF-κB-Luciferase level relative to R848 condition, fold increase)” value is reported as 0.821 and the “TLR8 500 nM (averaged NF-κB-Luciferase level relative to R848 condition, fold increase)” value is reported as 2.863.

With “GCAGGCTCAGTGATGT (antisense; LNA-modified, pattern not given here) [CTNN2B-1642 LNA V1]” the “TLR8 100 nM (averaged NF-κB-Luciferase level relative to R848 condition, fold increase)” value was 0.638 and the “TLR8 500 nM (averaged NF-κB-Luciferase level relative to R848 condition, fold increase)” value was 1.440.

With “GCATCCACCACGTCGT (antisense; LNA-modified, pattern not given here) [EGFR-3267 LNA V1]” the “TLR8 100 nM (averaged NF-κB-Luciferase level relative to R848 condition, fold increase)” value was 0.607 and the “TLR8 500 nM (averaged NF-κB-Luciferase level relative to R848 condition, fold increase)” value was 0.738.

For “GCCATCCACTTGATAG (antisense; LNA-modified, pattern not given here) [EGFR-2874 LNA V1]”, the “TLR8 100 nM (averaged NF-κB-Luciferase level relative to R848 condition, fold increase)” value was 0.440 and the “TLR8 500 nM (averaged NF-κB-Luciferase level relative to R848 condition, fold increase)” value was 0.681.

With “GCCATGCTGGCTCGGA (antisense; LNA-modified, pattern not given here) [CAMSAP1-2584 LNA V1]” the “TLR8 100 nM (averaged NF-κB-Luciferase level relative to R848 condition, fold increase)” value was 0.446 and the “TLR8 500 nM (averaged NF-κB-Luciferase level relative to R848 condition, fold increase)” value was 0.363.

With “GCCATGTTTCTTCTTG (antisense; LNA-modified, pattern not given here) [MB21D1-1248 LNA KL]” the “TLR8 100 nM (averaged NF-κB-Luciferase level relative to R848 condition, fold increase)” value was 0.430 and the “TLR8 500 nM (averaged NF-κB-Luciferase level relative to R848 condition, fold increase)” value was 0.431.

For “GGCTGGAATCCGAGTT (antisense; LNA-modified, pattern not given here) [EGFR-4705 LNA KL]”, the “TLR8 100 nM (averaged NF-κB-Luciferase level relative to R848 condition, fold increase)” value was 0.562 and the “TLR8 500 nM (averaged NF-κB-Luciferase level relative to R848 condition, fold increase)” value was 0.577.

“GGTTACGGCTCAGTAT (antisense; LNA-modified, pattern not given here) [CAMSAP1-4295 LNA KL]” was tested, and the “TLR8 100 nM (averaged NF-κB-Luciferase level relative to R848 condition, fold increase)” value was 0.804 and the “TLR8 500 nM (averaged NF-κB-Luciferase level relative to R848 condition, fold increase)” value was 1.848.

In the case of “GTATCGAAAGAGTCTG (antisense; LNA-modified, pattern not given here) [EGFR-3908 LNA KL]”, the “TLR8 100 nM (averaged NF-κB-Luciferase level relative to R848 condition, fold increase)” value is reported as 0.637 and the “TLR8 500 nM (averaged NF-κB-Luciferase level relative to R848 condition, fold increase)” value is reported as 1.781.

“GTCCCCTGTTGACTGG (antisense; LNA-modified, pattern not given here) [HPRT LNA-489 KL]” was tested, and the “TLR8 100 nM (averaged NF-κB-Luciferase level relative to R848 condition, fold increase)” value was 0.335 and the “TLR8 500 nM (averaged NF-κB-Luciferase level relative to R848 condition, fold increase)” value was 0.304.

“GTCTTGGCTTCGTGGA (antisense; LNA-modified, pattern not given here) [MB21D1-522 LNA V1]” was tested, and the “TLR8 100 nM (averaged NF-κB-Luciferase level relative to R848 condition, fold increase)” value was 0.678 and the “TLR8 500 nM (averaged NF-κB-Luciferase level relative to R848 condition, fold increase)” value was 2.137.

“GTGTCTGGAAGCTTCC (antisense; LNA-modified, pattern not given here) [CTNN2B-809 LNA V1]” was tested, and the “TLR8 100 nM (averaged NF-κB-Luciferase level relative to R848 condition, fold increase)” value was 0.923 and the “TLR8 500 nM (averaged NF-κB-Luciferase level relative to R848 condition, fold increase)” value was 2.057.

In the case of “GTTCAGTCCTGTCCAT (antisense; LNA-modified, pattern not given here) [HPRT LNA-292 V1]”, the “TLR8 100 nM (averaged NF-κB-Luciferase level relative to R848 condition, fold increase)” value is reported as 1.069 and the “TLR8 500 nM (averaged NF-κB-Luciferase level relative to R848 condition, fold increase)” value is reported as 4.129.

In the case of “TCCAACACTTCGTGGG (antisense; LNA-modified, pattern not given here) [HPRT LNA-669 V1]”, the “TLR8 100 nM (averaged NF-κB-Luciferase level relative to R848 condition, fold increase)” value is reported as 0.413 and the “TLR8 500 nM (averaged NF-κB-Luciferase level relative to R848 condition, fold increase)” value is reported as 0.491.

For “TCGTAGTTGCTTCCTA (antisense; LNA-modified, pattern not given here) [MB21D1-1181 LNA KL]”, the “TLR8 100 nM (averaged NF-κB-Luciferase level relative to R848 condition, fold increase)” value was 0.557 and the “TLR8 500 nM (averaged NF-κB-Luciferase level relative to R848 condition, fold increase)” value was 1.583.

“TGATGGCCTCCCATCT (antisense; LNA-modified, pattern not given here) [HPRT LNA-332 V1]” was tested, and the “TLR8 100 nM (averaged NF-κB-Luciferase level relative to R848 condition, fold increase)” value was 0.374 and the “TLR8 500 nM (averaged NF-κB-Luciferase level relative to R848 condition, fold increase)” value was 0.263.

In the case of “TGCACACTTCGTACCC (antisense; LNA-modified, pattern not given here) [CAMSAP1-4916 LNA V1]”, the “TLR8 100 nM (averaged NF-κB-Luciferase level relative to R848 condition, fold increase)” value is reported as 0.411 and the “TLR8 500 nM (averaged NF-κB-Luciferase level relative to R848 condition, fold increase)” value is reported as 0.370.

“TGGCCTCCCATCTCCT (antisense; LNA-modified, pattern not given here) [HPRT LNA-329 V1]” was tested, and the “TLR8 100 nM (averaged NF-κB-Luciferase level relative to R848 condition, fold increase)” value was 0.495 and the “TLR8 500 nM (averaged NF-κB-Luciferase level relative to R848 condition, fold increase)” value was 1.127.

For “TGTGATGGCCTCCCAT (antisense; LNA-modified, pattern not given here) [HPRT LNA-334 V1]”, the “TLR8 100 nM (averaged NF-κB-Luciferase level relative to R848 condition, fold increase)” value was 0.582 and the “TLR8 500 nM (averaged NF-κB-Luciferase level relative to R848 condition, fold increase)” value was 1.596.
